Test results: article PMC6547740, “Potent and specific MTH1 inhibitors targeting gastric cancer” (Cell Death & Disease, 2019)

Experiments:
[1] = system: HL-7702 cells; assay: MTT cell viability, HL-7702; format: cell-based; conditions: Homo sapiens, L02, normal liver cell line, 72 h
Experimental: (§1) The cell viability was determined by 3-(4,5-dimethylthiazol-2-yl)-2,5-diphenyltetrazolium bromide (MTT) assay, according to the manufacturer’s instructions. 1 day before treatment, cells were seeded into 96-well plates at a concentration of 2–5 × 10^3 cells per well, followed by treatment with fresh medium containing serial dilutions of candidate compounds for 48 or 72 h, 20 μL of MTT solution (5 mg/mL in PBS) was then added to each well. After treatment, the plates were incubated at 37 °C for another 4 h. Subsequently, the MTT solution was removed and 150 μL of DMSO was added to each well for 10 min, and then the plates were shaken to dissolve the dark blue crystal (formazan), the absorbance was detected at 570 nm using a BioTek microplate reader. The data were analyzed using SPSS 20 software.

[2] = system: Het-1A cells; assay: MTT cell viability, Het-1A; format: cell-based; conditions: Homo sapiens, normal esophageal epithelial cell line, 72 h
Experimental: as §1

[3] = system: MGC-803 cells-derived xenograft; assay: MGC-803 cells-derived xenograft model; format: in vivo, BALB/c nude mice; set-up: average tumor volumes in comparison with oil treatment group: scale not given here; conditions: 40 mg/kg, gavage once a day for 25 days
Experimental: (§2) All animal experiments were conducted according to the guidelines of the Institutional Animal Care and Use Committee of Zhengzhou University. Four or five-week-old female BALB/c nude mice, weighing 18–21 g were purchased from Hunan Slack Scene of Laboratory Animal Company, LTD (Hunan, China). They received abundant food and water and were housed in a laminar flow under sterilized condition. 200 µL MGC-803 cells at the concentration of 5 × 10^7/mL were injected into the right scapular region of the mice. When most of the tumor volumes reached 100 mm^3, mice were randomly divided into oil (solvent) group and MI-743(40 mg/kg) treatment group. Then, they received gavage daily for 25 days. The body weight was weighed every 2 days and the tumor volumes were measured every 4 days. At the 25th day, the tumors were surgically removed and weighed. The tumor size was determined by vernier caliper measurements and the tumor and major organs were fixed in 4% buffered paraformaldehyde and paraffin-embedded for hematoxylin and eosin (HE) staining, immunohistochemistry (IHC) and TUNEL assay.

[4] = system: MGC-803 cells; assay: Alkaline comet assay, MGC-803; format: cell-based, human; conditions: MGC-803, 10 µM, 48 h, compared with DMSO
Experimental: MGC-803 and HGC-27 cells were seeded into 6-well plates(1.5 × 10^5 cells/well) and cultured overnight. For siRNA experiments, the control siRNA and MTH1 siRNA were transfected into cells. For compounds experiments, cells were treated with candidate compounds MI-743 for 48 h before collection. For the H2O2 control, cells were treated with 100 µM H2O2 for 10 min. Subsequently, cells were harvested, washed and resuspended with PBS. After counting, cells were mixed with 1.2% low melting-temperature agarose at 37 °C. The mixtures were layered onto pre-warmed glass slides, which were pre-coated with 1% agarose. After adding coverslips, slides were kept in 4 °C immediately for 10-15 min, followed by immersing in pre-chilled lysis buffer(2.5 M NaCl, 0.1 M EDTA, 10 mM Tris-HCL pH 7.7, 1% Triton X-100, 1% DMSO)for 5-8 h. Then, slides were washed three times with enzyme reaction buffer (40 mM HEPES pH 8.0, 0.1 M KCl, 0.5 mM EDTA and 0.2 mg/mL BSA) and incubated for another 45 min in pre-chilled alkaline electrophoresis buffer (50 mM NaOH, 1 mM EDTA, 1% DMSO, pH12.8). After electrophoresis for 30 min at 25 V, slides were neutralized with 0.4 M Tris-HCl pH 7.0 for 1 h and stained with 1‰ EB for 5 min. At last, images were acquired using fluorescence microscope and analysised by CometScore software.

[5] = system: HGC-27 cells; assay: Western blot of DNA damage response markers, HGC-27; format: cell-based, human; conditions: HGC-27, 1-12 µM 48 h or 12 µM 12-48 h, dose and time-dependently, vs DMSO
Experimental: MGC-803, HGC-27 and GES-1 cells were seeded into 100mm^2 plastic dishes(1 × 10^5 cells/well) and incubated overnight prior to the addition of compound MI-743 at 1, 2, 4, 8 and 12 µM for 48 h or compound MI-743 at 12 µM for 12, 24, 36 and 48 h, respectively. After treatment, the cells were harvested and lysed with RIPA cell lysis buffer, containing protease inhibitor cocktail. Then, the cells were centrifuged at 12,000 × g for 20 min at 4 °C. The supernatant were collected and the concentration was determined by a Bicinchoninic Acid (BCA) Protein Assay kit, denatured at 100 °C for 10 min, separated by SDS−PAGE and transferred to 0.22 μm nitrocellulose membranes. After blocking by PBS containing 5% skim milk for 2 h at room temperature, the membranes were probed with the appropriate primary antibodies (1:500~1:1000) at 4 °C overnight, followed by the treatment of horseradish-peroxidase-conjugated secondary antibody (1:10000) at room temperature for 2 h. Subsequently, the membranes were washed with PBST, examined by enhanced chemiluminescence and the data was determined using Image J software.

[6] = Body weight and organ H&E staining in xenograft mice; format: in vivo, BALB/c nude mice; conditions: 40 mg/kg, gavage once a day for 25 days, vs oil group
Experimental: as §2

C#CCSc1nc(NNC(N)=S)c(C#N)c(-c2ccc3oc(=O)ccc3c2)n1 [MI-743, 2-(5-cyano-6-(2-oxo-2H-chromen-6-yl)-2-(prop-2-yn-1-ylthio)pyrimidin-4-yl)hydrazine-1-carbothioamide]
IC50 [1]: 20.1 ± 1.76 µM
IC50 [2]: 19.2 ± 1.89 µM
average tumor volumes in comparison with oil treatment group [3]: 33.54%
expression levels of ATMpS1981 and 8-oxo-dG in tumor tissue (immunohistochemistry) ([3]; vs oil group): sharply increased
comet tail moment [4]: significantly elevated
expression levels of p53pS15, ATMpS1981 and p21 [5]: significantly increased
H&E staining of the liver, kidney, lung, heart and spleen [6]: no signs of toxicity
mouse body weight [6]: did not present obvious change
